The values below come from patent US12202835B2, “Substituted aromatic ring-linked dioxinoquinazolines and dioxinoquinolines as kinase inhibitors” (BEIJING SCITECH-MQ PHARMACEUTICALS LIMITED, priority 2018, dated 2025).

One test has as its target VEGFR-2 kinase (Homo sapiens (Human), UniProt P35968). As to the kind of experiment: Assay of small molecular compounds for inhibiting the activity of VEGFR-2 kinase (LANCE TR-FRET). To be noted: read-out: VEGFR2 IC50. In kind it is biochemical. A digest of the protocol:
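LANCE TR-FRET with human VEGFR-2 (2× stock 0.5 nM) preincubated 30 min with compound (final 2500 to 0.042 nM, 11-point 3-fold), then ULight-JAK-1 (Tyr1023) peptide/ATP added (4× stocks 200 nM/40 μM). Reaction 60 min room temperature, 4% DMSO; IC50 from inhibition-rate curve.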

The next test concerns the target c-MET kinase (Homo sapiens (Human), UniProt P08581). Briefly: Assay of small molecular compounds for inhibiting the activity of c-MET kinase (LANCE TR-FRET). In kind it is biochemical. To be noted: read-out: CMET IC50. A digest of the protocol:
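LANCE TR-FRET assay with c-MET at 1 nM final after a 5 min room-temperature preincubation with compound (11-point, 3-fold series, 2500–0.042 nM final, 4% DMSO). ULight-JAK-1 (Tyr1023) peptide (100 nM final) and ATP (10 μM final) reacted 60 min in the dark. Inhibition was taken relative to controls, then IC50 fitted.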
(In general: Time-resolved FRET reads energy transfer from a long-lived donor to a nearby acceptor.)

Sequence of VEGFR-2 kinase (P35968 20-1356): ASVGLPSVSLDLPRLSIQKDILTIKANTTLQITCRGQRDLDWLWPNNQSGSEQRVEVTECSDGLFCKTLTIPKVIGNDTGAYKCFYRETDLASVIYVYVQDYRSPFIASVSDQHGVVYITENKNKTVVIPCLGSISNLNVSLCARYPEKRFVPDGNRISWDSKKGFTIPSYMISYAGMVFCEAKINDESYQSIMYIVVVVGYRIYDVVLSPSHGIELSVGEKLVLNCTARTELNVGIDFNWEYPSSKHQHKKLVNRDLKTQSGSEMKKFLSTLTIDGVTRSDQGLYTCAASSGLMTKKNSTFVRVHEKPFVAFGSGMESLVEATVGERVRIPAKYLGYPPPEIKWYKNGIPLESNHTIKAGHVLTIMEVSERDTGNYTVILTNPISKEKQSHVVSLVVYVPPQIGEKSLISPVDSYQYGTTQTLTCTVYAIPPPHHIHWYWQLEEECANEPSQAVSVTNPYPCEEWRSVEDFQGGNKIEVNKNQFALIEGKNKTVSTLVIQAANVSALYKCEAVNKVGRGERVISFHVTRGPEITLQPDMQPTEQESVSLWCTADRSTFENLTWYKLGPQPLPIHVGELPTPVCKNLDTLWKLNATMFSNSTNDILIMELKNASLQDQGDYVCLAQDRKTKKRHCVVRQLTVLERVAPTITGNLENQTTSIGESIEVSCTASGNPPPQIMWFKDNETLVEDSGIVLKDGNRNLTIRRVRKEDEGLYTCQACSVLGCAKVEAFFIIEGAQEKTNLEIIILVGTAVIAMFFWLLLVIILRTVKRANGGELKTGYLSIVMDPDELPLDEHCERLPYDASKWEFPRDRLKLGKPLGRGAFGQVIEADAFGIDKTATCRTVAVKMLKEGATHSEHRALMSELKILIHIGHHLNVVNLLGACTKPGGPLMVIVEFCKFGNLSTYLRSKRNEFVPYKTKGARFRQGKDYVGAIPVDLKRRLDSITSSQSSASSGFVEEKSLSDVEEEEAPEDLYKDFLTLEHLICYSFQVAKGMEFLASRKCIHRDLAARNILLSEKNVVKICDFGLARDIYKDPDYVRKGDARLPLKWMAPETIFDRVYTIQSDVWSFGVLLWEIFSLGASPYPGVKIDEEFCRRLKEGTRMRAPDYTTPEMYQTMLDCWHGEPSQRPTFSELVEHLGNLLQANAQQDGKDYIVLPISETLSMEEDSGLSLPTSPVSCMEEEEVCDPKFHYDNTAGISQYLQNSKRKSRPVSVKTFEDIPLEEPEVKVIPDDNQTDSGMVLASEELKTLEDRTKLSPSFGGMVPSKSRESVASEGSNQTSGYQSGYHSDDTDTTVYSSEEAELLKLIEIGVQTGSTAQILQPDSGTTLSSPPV
Sequence of c-MET kinase (P08581 25-1390): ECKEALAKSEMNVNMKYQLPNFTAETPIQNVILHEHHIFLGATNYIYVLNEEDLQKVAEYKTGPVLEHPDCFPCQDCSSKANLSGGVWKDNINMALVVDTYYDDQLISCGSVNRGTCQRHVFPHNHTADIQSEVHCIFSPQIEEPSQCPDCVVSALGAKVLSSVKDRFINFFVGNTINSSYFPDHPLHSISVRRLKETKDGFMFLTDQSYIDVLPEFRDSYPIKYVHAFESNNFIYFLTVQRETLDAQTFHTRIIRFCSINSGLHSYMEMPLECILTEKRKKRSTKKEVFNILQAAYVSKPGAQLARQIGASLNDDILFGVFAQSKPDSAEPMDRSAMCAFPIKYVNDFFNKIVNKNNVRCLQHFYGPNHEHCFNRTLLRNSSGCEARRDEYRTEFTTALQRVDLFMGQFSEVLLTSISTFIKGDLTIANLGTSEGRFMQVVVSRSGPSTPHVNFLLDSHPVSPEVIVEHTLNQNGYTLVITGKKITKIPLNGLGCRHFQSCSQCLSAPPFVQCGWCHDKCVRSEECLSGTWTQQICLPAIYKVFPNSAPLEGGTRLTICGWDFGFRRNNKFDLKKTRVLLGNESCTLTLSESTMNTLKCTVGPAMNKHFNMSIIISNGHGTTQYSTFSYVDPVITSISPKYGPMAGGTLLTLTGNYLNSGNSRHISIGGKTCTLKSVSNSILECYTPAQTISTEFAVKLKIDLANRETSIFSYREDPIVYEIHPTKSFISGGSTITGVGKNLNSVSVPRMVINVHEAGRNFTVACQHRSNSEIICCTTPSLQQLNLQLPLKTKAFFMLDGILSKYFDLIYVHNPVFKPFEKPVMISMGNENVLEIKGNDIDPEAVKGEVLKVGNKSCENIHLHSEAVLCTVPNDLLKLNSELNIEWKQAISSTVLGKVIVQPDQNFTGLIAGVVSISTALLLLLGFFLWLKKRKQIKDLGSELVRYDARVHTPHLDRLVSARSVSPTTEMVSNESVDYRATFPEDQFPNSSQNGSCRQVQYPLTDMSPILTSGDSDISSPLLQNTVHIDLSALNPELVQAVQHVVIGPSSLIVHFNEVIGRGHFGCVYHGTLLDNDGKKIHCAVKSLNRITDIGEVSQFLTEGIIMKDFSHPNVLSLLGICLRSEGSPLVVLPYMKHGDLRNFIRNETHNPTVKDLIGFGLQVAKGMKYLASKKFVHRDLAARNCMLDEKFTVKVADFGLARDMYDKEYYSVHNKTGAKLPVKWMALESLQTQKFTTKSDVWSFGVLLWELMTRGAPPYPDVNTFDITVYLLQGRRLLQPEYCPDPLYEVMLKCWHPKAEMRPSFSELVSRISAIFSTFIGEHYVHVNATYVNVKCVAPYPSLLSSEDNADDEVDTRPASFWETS

The IC50 is the point on the concentration scale where inhibition reaches its midpoint. Turning to `O=C(Nc1ccc(Oc2ccnc3cc(OCCCN4CCOCC4)c4c(c23)OCCO4)cc1Cl)c1cccn(-c2ccc(F)cc2)c1=O` [Example 143, N-(2-chloro-4-((5-(3-morpholinopropoxy)-2,3-dihydro-[1,4]dioxino[2,3-f]quinolin-10-yl)oxy)phenyl)-1-(4-fluorophenyl)-2-oxo-1,2-dihydropyridine-3-carboxamide], the IC50 at VEGFR-2 kinase and at c-MET kinase was not above 0.05 µM in each case.

As to `Cn1cc(C(=O)Nc2ccc(Oc3ccnc4cc(OCCCN5CCCCC5)c5c(c34)OCCO5)cc2Cl)c(=O)n(-c2ccc(F)cc2)c1=O` [Example 137, N-(2-chloro-4-((5-((3-piperidin-1-yl)propoxy)-2,3-dihydro-[1,4]dioxino[2,3-f]quinolin-10-yl)oxy)phenyl)-3-(4-fluorophenyl)-1-methyl-2,4-dioxo-1,2,3,4-tetrahydropyrimidine-5-carboxamide], the IC50 is 0.05 to 0.5 µM on VEGFR-2 kinase and not above 0.05 µM at c-MET kinase.

With `Cn1cc(C(=O)Nc2ccc(Oc3ccnc4cc(OCCCN5CCOCC5)c5c(c34)OCCO5)cc2Cl)c(=O)n(-c2ccc(F)cc2)c1=O` [Example 98, N-(2-chloro-4-((5-(3-morpholinopropoxy)-2,3-dihydro-[1,4]dioxino[2,3-f]quinolin-10-yl)oxy)phenyl)-3-(4-fluorophenyl)-1-methyl-2,4-dioxo-1,2,3,4-tetrahydropyrimidine-5-carboxamide], the figures for the IC50 on VEGFR-2 kinase and at c-MET kinase were 0.5 to 5 µM and 0.05 to 0.5 µM, respectively.

For `CCOc1cc2nccc(Oc3ccc(NC(=O)c4cccn(-c5ccc(F)cc5)c4=O)c(Cl)c3)c2c2c1OCCO2` [Example 127, N-(2-chloro-4-((5-ethoxy-2,3-dihydro-[1,4]dioxino[2,3-f]quinolin-10-yl)oxy)phenyl)-1-(4-fluorophenyl)-2-oxo-1,2-dihydropyridine-3-carboxamide], the 50% inhibitory concentration (IC50) was 0.5 to 5 µM at VEGFR-2 kinase and not above 0.05 µM at c-MET kinase.

Consider `Cn1cc(C(=O)Nc2ccc(Oc3ccnc4cc(OCC(C)(C)O)c5c(c34)OCCO5)c(F)c2)c(=O)n(-c2ccc(F)cc2)c1=O` [Example 121, N-(3-fluoro-4-((5-(2-hydroxy-2-methylpropoxy)-2,3-dihydro-[1,4]dioxino[2,3-f]quinolin-10-yl)oxy)phenyl)-3-(4-fluorophenyl)-1-methyl-2,4-dioxo-1,2,3,4-tetrahydropyrimidine-5-carboxamide], for which the IC50 lay in the range of 0.5 to 5 µM on VEGFR-2 kinase and 0.05 to 0.5 µM at c-MET kinase.

For the molecule `COCCOc1cc2nccc(Oc3ccc(NC(=O)c4cn(C)c(=O)n(-c5ccc(F)cc5)c4=O)cc3)c2c2c1OCCO2` [Example 147, N-(4-((5-(2-methoxyethoxy)-2,3-dihydro-[1,4]dioxino[2,3-f]quinolin-10-yl)oxy)phenyl)-3-(4-fluorophenyl)-1-methyl-2,4-dioxo-1,2,3,4-tetrahydropyrimidine-5-carboxamide], the IC50 at VEGFR-2 kinase was 0.05 to 0.5 µM; on c-MET kinase it was not above 0.05 µM.

Turning to `CCOc1cc2nccc(Oc3ccc(NC(=O)c4cn(C)c(=O)n(-c5ccc(F)cc5)c4=O)c(Cl)c3)c2c2c1OCCO2` [Example 129, N-(2-chloro-4-((5-ethoxy-2,3-dihydro-[1,4]dioxino[2,3-f]quinolin-10-yl)oxy)phenyl)-3-(4-fluorophenyl)-1-methyl-2,4-dioxo-1,2,3,4-tetrahydropyrimidine-5-carboxamide], the IC50 at VEGFR-2 kinase is 0.5 to 5 µM; at c-MET kinase, not above 0.05 µM.

Consider `Cn1cc(C(=O)Nc2ccc(Oc3ccnc4cc(OCC(C)(C)O)c5c(c34)OCCO5)cc2)c(=O)n(-c2ccc(F)cc2)c1=O` [Example 149, N-(4-((5-(2-hydroxy-2-methylpropoxy)-2,3-dihydro-[1,4]dioxino[2,3-f]quinolin-10-yl)oxy)phenyl)-3-(4-fluorophenyl)-1-methyl-2,4-dioxo-1,2,3,4-tetrahydropyrimidine-5-carboxamide], for which the IC50 at VEGFR-2 kinase is 0.5 to 5 µM; on c-MET kinase, not above 0.05 µM.

In the case of `CCOc1cc2nccc(Oc3ccc(NC(=O)c4c(OC)ccn(-c5ccc(F)cc5)c4=O)c(Cl)c3)c2c2c1OCCO2` [Example 128, N-(2-chloro-4-((5-ethoxy-2,3-dihydro-[1,4]dioxino[2,3-f]quinolin-10-yl)oxy)phenyl)-1-(4-fluorophenyl)-4-methoxy-2-oxo-1,2-dihydropyridine-3-carboxamide], the IC50 was 0.5 to 5 µM on VEGFR-2 kinase and not above 0.05 µM on c-MET kinase.

As to `CCOc1cc2nccc(Oc3ccc(NC(=O)c4c(OCC)ccn(-c5ccc(F)cc5)c4=O)c(Cl)c3)c2c2c1OCCO2` [Example 130, N-(2-chloro-4-((5-ethoxy-2,3-dihydro-[1,4]dioxino[2,3-f]quinolin-10-yl)oxy)phenyl)-1-(4-fluorophenyl)-4-ethoxy-2-oxo-1,2-dihydropyridine-3-carboxamide], the IC50 on VEGFR-2 kinase was 0.05 to 0.5 µM; on c-MET kinase it was not above 0.05 µM.

On to `CC(C)n1cc(C(=O)Nc2ccc(Oc3ccnc4cc(OCC(C)(C)O)c5c(c34)OCCO5)c(F)c2)c(=O)n(-c2ccc(F)cc2)c1=O` [Example 122, N-(3-fluoro-4-((5-(2-hydroxy-2-methylpropoxy)-2,3-dihydro-[1,4]dioxino[2,3-f]quinolin-10-yl)oxy)phenyl)-3-(4-fluorophenyl)-1-isopropyl-2,4-dioxo-1,2,3,4-tetrahydropyrimidine-5-carboxamide], for which the IC50 at VEGFR-2 kinase is 0.5 to 5 µM; at c-MET kinase, not above 0.05 µM.

As for `CCn1cc(C(=O)Nc2ccc(Oc3ccnc4cc(OCCOC)c5c(c34)OCCO5)cc2F)c(=O)n(-c2ccc(F)cc2)c1=O` [Example 156, N-(2-fluoro-4-((5-(2-methoxyethoxy)-2,3-dihydro-[1,4]dioxino[2,3-f]quinolin-10-yl)oxy)phenyl)-3-(4-fluorophenyl)-1-ethyl-2,4-dioxo-1,2,3,4-tetrahydropyrimidine-5-carboxamide], the IC50 was 0.5 to 5 µM at VEGFR-2 kinase and not above 0.05 µM at c-MET kinase.

For the molecule `CCn1cc(C(=O)Nc2ccc(Oc3ccnc4cc(OCC(C)(C)O)c5c(c34)OCCO5)cc2)c(=O)n(-c2ccc(F)cc2)c1=O` [Example 150, N-(4-((5-(2-hydroxy-2-methylpropoxy)-2,3-dihydro-[1,4]dioxino[2,3-f]quinolin-10-yl)oxy)phenyl)-3-(4-fluorophenyl)-1-ethyl-2,4-dioxo-1,2,3,4-tetrahydropyrimidine-5-carboxamide], the half-inhibitory concentration (IC50) was 0.5 to 5 µM on VEGFR-2 kinase and not above 0.05 µM at c-MET kinase.

Take `Cn1cc(C(=O)Nc2ccc(Oc3ncnc4cc(OCCCN5CCOCC5)c5c(c34)OCCO5)c(F)c2)c(=O)n(-c2ccc(F)cc2)c1=O` [Example 30, N-(3-fluoro-4-((5-(3-morpholinopropoxy)-2,3-dihydro-[1,4]dioxino[2,3-f]quinazolin-10-yl)oxy)phenyl)-3-(4-fluorophenyl)-1-methyl-2,4-dioxo-1,2,3,4-tetrahydropyrimidine-5-carboxamide]: the half-maximal inhibitory concentration (IC50) on VEGFR-2 kinase and at c-MET kinase was not above 0.05 µM throughout.

As for `CCOc1ccn(-c2ccc(F)cc2)c(=O)c1C(=O)Nc1ccc(Oc2ccnc3cc(OCCCN4CCCCC4)c4c(c23)OCCO4)cc1Cl` [Example 138, N-(2-chloro-4-((5-((3-piperidin-1-yl)propoxy)-2,3-dihydro-[1,4]dioxino[2,3-f]quinolin-10-yl)oxy)phenyl)-1-(4-fluorophenyl)-4-ethoxy-2-oxo-1,2-dihydropyridine-3-carboxamide], the 50% inhibitory concentration (IC50) on VEGFR-2 kinase and at c-MET kinase was not above 0.05 µM each time.
